Columns and labels:
CTAT = target: T1, CTAT (Leishmania donovani, UniProt A0A3Q8INT3); experiment: UV absorption scan […]-500 nm, aldimine bond formation; assay type: binding; details: 4 mM PLP; 0.5 and 1 mg/ml protein; 25 °C; 30 min; covalent, internal aldimine at K286
T1 construct: gene LdCL_360030600; C-terminal 60 residues (180 bp) deleted; printed 389 aa (1,167 bp; end may be 388); two His-tags (N and C) from pET28a(+), about 45 kDa on gel, E. coli BL21, Ni-NTA

NTAT [1] = target: T2, NTAT (Leishmania donovani, UniProt A0A3Q8INT3); experiment: as above; assay type: binding; set-up: gene LdCL_360030600; N-terminal 60 residues (180 bp) deleted, starts T61, runs to native C-terminus; His-tag from pET28a(+), E. coli BL21, Ni-NTA; parent gene 1,347 bp; details: 4 mM PLP; 0.5 and 1 mg/ml protein; 25 °C; 30 min; covalent, internal aldimine at K286
NTAT [2] = target: T2, NTAT; set-up: gene LdCL_360030600; details: co-substrate sodium pyruvate 100 mM; 30 µM PLP; pH 8; 37 °C; tyrosine 0-7 mM; apparent

T2 sequence (A0A3Q8INT3 entry or part of it): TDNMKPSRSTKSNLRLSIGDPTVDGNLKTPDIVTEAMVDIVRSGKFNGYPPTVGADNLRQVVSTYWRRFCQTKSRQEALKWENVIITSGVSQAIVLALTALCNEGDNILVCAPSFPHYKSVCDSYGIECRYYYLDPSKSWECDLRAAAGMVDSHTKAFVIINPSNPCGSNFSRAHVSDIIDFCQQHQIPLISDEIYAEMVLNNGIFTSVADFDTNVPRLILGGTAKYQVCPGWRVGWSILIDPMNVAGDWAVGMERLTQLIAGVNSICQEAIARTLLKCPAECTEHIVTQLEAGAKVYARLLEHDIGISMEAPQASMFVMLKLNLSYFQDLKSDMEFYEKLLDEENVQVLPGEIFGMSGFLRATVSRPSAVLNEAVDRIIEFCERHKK
T1 sequence (A0A3Q8INT3 entry or part of it): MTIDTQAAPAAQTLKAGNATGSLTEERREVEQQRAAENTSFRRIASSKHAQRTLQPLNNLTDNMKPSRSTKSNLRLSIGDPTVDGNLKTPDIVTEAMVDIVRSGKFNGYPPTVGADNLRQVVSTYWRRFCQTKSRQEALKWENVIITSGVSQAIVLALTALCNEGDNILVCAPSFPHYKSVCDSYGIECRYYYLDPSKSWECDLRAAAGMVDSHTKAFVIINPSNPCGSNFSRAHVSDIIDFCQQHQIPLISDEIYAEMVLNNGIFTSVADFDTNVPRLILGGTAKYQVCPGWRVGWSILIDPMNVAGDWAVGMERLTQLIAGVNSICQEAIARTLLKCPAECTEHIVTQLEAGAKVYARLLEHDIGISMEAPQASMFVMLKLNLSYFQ

| SMILES | UV absorption scan 300-500 nm, aldimine bond formation (CTAT) | UV absorption scan 300-500 nm, aldimine bond formation (NTAT [1]) | Km (NTAT [2]) [mM] |
| --- | --- | --- | --- |
| Cc1ncc(COP(=O)(O)O)c(C=O)c1O [PLP] | In CTAT, the PLP binding was higher than NTAT | The increase in the concentration of NTAT or CTAT bound more PLP and formed aldimine bonds |  |
| N[C@@H](Cc1ccc(O)cc1)C(=O)O [tyrosine] |  |  | 3.47 ± 0.796 |

From publication PMC7385629 (Scientific Reports, 2020)
